Data: US9920038B2, “Methyl oxazole orexin receptor antagonists” (MERCK SHARP & DOHME CORP., priority 2014, dated 2018)
Read-outs that look alike come from different tables or passages of the source.

Legend:
hOX1R = hOX1R (Homo sapiens, UniProt O43613); experiment: hOX1R FLIPR Ca2+ flux assay; type: cell-based
human orexin-2 receptor = human orexin-2 receptor (Homo sapiens (Human), UniProt O43614); experiment: hOX2R FLIPR Ca2+ flux assay; type: cell-based; details: CHO cells expressing human orexin-2 receptor; agonist 70 pM Ala-6,12 orexin-A
Experimental: In a typical experiment the OX1 and OX2 receptor antagonistic activity of the compounds of the present invention was determined in accordance with the following experimental method. For intracellular calcium measurements, Chinese hamster ovary (CHO) cells expressing the rat orexin-1 receptor or the human orexin-2 receptor, are grown in Iscove's modified DMEM containing 2 mM L-glutamine, […], 1% hypoxanthine-thymidine supplement, 100 U/ml penicillin, 100 μg/ml streptomycin and 10% heat-inactivated fetal calf serum (FCS). The cells are seeded at 20,000 cells/well into Becton-Dickinson black 384-well clear bottom sterile plates coated with poly-D-lysine. All reagents were from GIBCO-Invitrogen Corp. The seeded plates are incubated overnight at 37° C. and 5% CO2. Ala-6,12 human orexin-A as the agonist is prepared as a 1 mM stock solution in 1% bovine serum albumin (BSA) and diluted in assay buffer (HBSS containing 20 mM HEPES, 0.1% BSA and 2.5 mM probenecid, pH7.4) for use in the assay at a final concentration of 70 pM. Test compounds are prepared as 10 mM stock solution in DMSO, then diluted in 384-well plates, first in DMSO, then assay buffer. On the day of the assay, cells are washed 3 times with 100 μl assay buffer and then incubated for 60 min (37° C., 5% CO2) in 60 μl assay buffer containing […] Fluo-4AM ester, 0.02% pluronic acid, and 1% BSA. The dye loading solution is then aspirated and cells are washed 3 times with 100 μl assay buffer. 30 μl of that same buffer is left in each well. Within the Fluorescent Imaging Plate Reader (FLIPR, Molecular Devices), test compounds are added to the plate in a volume of 25 μl, incubated for 5 min and finally 25 μl of agonist is added. Fluorescence is measured for each well at 1 second intervals for 5 minutes and the height of each fluorescence peak is compared to the height of the fluorescence peak induced by 70 pM Ala-6,12 orexin-A with buffer in place of antagonist. For each antagonist, IC50 value (the concentration of compound needed to inhibit 50% of the agonist response) is determined. Alternatively, compound potency can be assessed by a radioligand binding assay (described in Bergman et. al. Bioorg. Med. Chem. Lett. 2008, 18, 1425-1430) in which the inhibition constant (Ki) is determined in membranes prepared from CHO cells expressing either the OX1 or OX2 receptor. The intrinsic orexin receptor antagonist activity of a compound which may be used in the present invention may be determined by these assays.

[1] = CHO cells expressing orexin-1 receptor, agonist 70 pM Ala-6,12 orexin-A, read-out: hOX1R FLIPR IC50

Chain of human orexin-2 receptor (O43614 whole entry): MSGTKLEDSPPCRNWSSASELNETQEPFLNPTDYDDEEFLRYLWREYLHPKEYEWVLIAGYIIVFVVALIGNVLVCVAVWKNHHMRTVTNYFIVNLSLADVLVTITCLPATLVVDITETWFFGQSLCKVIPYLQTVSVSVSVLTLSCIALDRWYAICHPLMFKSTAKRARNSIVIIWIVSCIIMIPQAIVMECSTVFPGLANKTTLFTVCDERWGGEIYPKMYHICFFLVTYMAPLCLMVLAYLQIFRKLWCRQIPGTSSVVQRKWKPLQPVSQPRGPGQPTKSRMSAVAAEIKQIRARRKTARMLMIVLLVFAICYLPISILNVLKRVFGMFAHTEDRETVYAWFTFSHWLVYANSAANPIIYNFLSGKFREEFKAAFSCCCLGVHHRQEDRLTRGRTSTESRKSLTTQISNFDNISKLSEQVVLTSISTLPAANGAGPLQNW

Compound `Cc1oc(C[C@H]2CCCCN2C(=O)c2ccccc2-n2nccn2)nc1C(C)(C)O` [Example 1, (R)-(2-(2H-1,2,3-triazol-2-yl)phenyl)(2-((4-(2-hydroxypropan-2-yl)-5-methyloxazol-2-yl)methyl)piperidin-1-yl)methanone] has an IC50 (hOX1R; [1]) of 18 nM and an IC50 (human orexin-2 receptor) of 14 nM.
`CCOc1ncccc1C(=O)N1CCCC[C@@H]1Cc1nc(C(C)(C)O)c(C)o1` [Example 2, (R)-(2-ethoxypyridin-3-yl)(2-((4-(2-hydroxypropan-2-yl)-5-methyloxazol-2-yl)methyl)piperidin-1-yl)methanone] was tested, and the IC50 (hOX1R; [1]) was 152 nM and the IC50 (human orexin-2 receptor) was 20 nM.
Work on `Cc1oc(C[C@H]2CCCCN2C(=O)c2ccccc2C2CC2)nc1C(C)(C)O` [Example 3, (R)-(2-cyclopropylphenyl)(2-((4-(2-hydroxypropan-2-yl)-5-methyloxazol-2-yl)methyl)piperidin-1-yl)methanone] yielded an IC50 (hOX1R) of 212 nM and an IC50 (human orexin-2 receptor) of 17 nM.
Compound `Cc1oc(C[C@H]2CCCCN2C(=O)c2ccc(F)cc2-n2nccn2)nc1C(C)(C)O` [Example 4, (R)-(4-fluoro-2-(2H-1,2,3-triazol-2-yl)phenyl)(2-((4-(2-hydroxypropan-2-yl)-5-methyloxazol-2-yl)methyl)piperidin-1-yl)methanone] has an IC50 (hOX1R; [1]) of 39 nM and an IC50 (human orexin-2 receptor) of 25 nM.
`Cc1oc(C[C@H]2CCCCN2C(=O)c2cccnc2OCC(F)(F)F)nc1C(C)(C)O` [Example 5, (R)-(2-((4-(2-hydroxypropan-2-yl)-5-methyloxazol-2-yl)methyl)piperidin-1-yl)(2-(2,2,2-trifluoroethoxy)pyridin-3-yl)methanone] showed an IC50 (hOX1R; [1]) of 162 nM and an IC50 (human orexin-2 receptor) of 19 nM.
With `Cc1oc(C[C@H]2CCCCN2C(=O)c2cccnc2OC(C)C)nc1C(C)(C)O` [Example 6, (R)-(2-((4-(2-hydroxypropan-2-yl)-5-methyloxazol-2-yl)methyl)piperidin-1-yl)(2-isopropoxypyridin-3-yl)methanone] the IC50 (hOX1R; [1]) was 223 nM and the IC50 (human orexin-2 receptor) was 36 nM.
`Cc1oc(C[C@H]2CCCCN2C(=O)c2ccccc2N2CCCC2)nc1C(C)(C)O` [Example 7, (R)-(2-((4-(2-hydroxypropan-2-yl)-5-methyloxazol-2-yl)methyl)piperidin-1-yl)(2-(pyrrolidin-1-yl)phenyl)methanone] gave an IC50 (hOX1R; [1]) of 67 nM and an IC50 (human orexin-2 receptor) of 51 nM.
Compound `CCOc1ccccc1C(=O)N1CCCC[C@@H]1Cc1nc(C(C)(C)O)c(C)o1` [Example 8, (R)-(2-ethoxyphenyl)(2-((4-(2-hydroxypropan-2-yl)-5-methyloxazol-2-yl)methyl)piperidin-1-yl)methanone] has an IC50 (hOX1R; [1]) of 256 nM and an IC50 (human orexin-2 receptor) of 28 nM.
Compound `Cc1oc(C[C@H]2CCCCN2C(=O)c2ccccc2OC(F)(F)F)nc1C(C)(C)O` [Example 9, (R)-(2-((4-(2-hydroxypropan-2-yl)-5-methyloxazol-2-yl)methyl)piperidin-1-yl)(2-(trifluoromethoxy)phenyl) methanone] has an IC50 (hOX1R; [1]) of 348 nM and an IC50 (human orexin-2 receptor) of 109 nM.
For `Cc1oc(C[C@H]2CCCCN2C(=O)c2ccccc2-n2cccn2)nc1C(C)(C)O` [Example 10, (R)-(2-(1H-pyrazol-1-yl)phenyl)(2-((4-(2-hydroxypropan-2-yl)-5-methyloxazol-2-yl)methyl)piperidin-1-yl)methanone], the IC50 (hOX1R; [1]) was 129 nM and the IC50 (human orexin-2 receptor) was 51 nM.
For `Cc1oc(C[C@H]2CCCCN2C(=O)c2cccnc2CC(F)(F)F)nc1C(C)(C)O` [Example 11, (R)-(2-((4-(2-hydroxypropan-2-yl)-5-methyloxazol-2-yl)methyl)piperidin-1-yl)(2-(2,2,2-trifluoroethyl)pyridin-3-yl)methanone], the IC50 (hOX1R; [1]) was > 10000 nM.
For `Cc1oc(C[C@H]2CCCCN2C(=O)c2ccccc2CC(F)F)nc1C(C)(C)O` [Example 12, (R)-(2-(2,2-difluoroethyl)phenyl)(2-((4-(2-hydroxypropan-2-yl)-5-methyloxazol-2-yl)methyl)piperidin-1-yl)methanone], the IC50 (hOX1R; [1]) was 2180 nM and the IC50 (human orexin-2 receptor) was 98 nM.
Compound `Cc1oc(C[C@H]2CCCCN2C(=O)c2cccnc2-n2cccn2)nc1C(C)(C)O` [Example 13, (R)-(2-(1H-pyrazol-1-yl)pyridin-3-yl)(2-((4-(2-hydroxypropan-2-yl)-5-methyloxazol-2-yl)methyl)piperidin-1-yl)methanone] has an IC50 (hOX1R; [1]) of 51 nM and an IC50 (human orexin-2 receptor) of 24 nM.
`Cc1oc(C[C@H]2CCCCN2C(=O)c2cccnc2-c2ccccc2)nc1C(C)(C)O` [Example 14, (R)-(2-((4-(2-hydroxypropan-2-yl)-5-methyloxazol-2-yl)methyl)piperidin-1-yl)(2-phenylpyridin-3-yl)methanone] gave an IC50 (hOX1R; [1]) of 80 nM and an IC50 (human orexin-2 receptor) of 38 nM.
In the case of `Cc1oc(C[C@H]2CCCCN2C(=O)c2ccccc2OC(F)F)nc1C(C)(C)O` [Example 15, (R)-(2-(difluoromethoxy)phenyl)(2-((4-(2-hydroxypropan-2-yl)-5-methyloxazol-2-yl)methyl)piperidin-1-yl)methanone], the IC50 (hOX1R; [1]) is reported as 1090 nM and the IC50 (human orexin-2 receptor) is reported as 98 nM.
`Cc1oc(C[C@H]2CCCCN2C(=O)c2cccnc2OCC(F)F)nc1C(C)(C)O` [Example 16, (R)-(2-(2,2-difluoroethoxy)pyridin-3-yl)(2-((4-(2-hydroxypropan-2-yl)-5-methyloxazol-2-yl)methyl)piperidin-1-yl)methanone] showed an IC50 (hOX1R; [1]) of 373 nM and an IC50 (human orexin-2 receptor) of 49 nM.
`Cc1oc(C[C@H]2CCCCN2C(=O)c2ccccc2OCC(F)(F)F)nc1C(C)(C)O` [Example 17, (R)-(2-((4-(2-hydroxypropan-2-yl)-5-methyloxazol-2-yl)methyl)piperidin-1-yl)(2-(2,2,2-trifluoroethoxy)phenyl)methanone] gave an IC50 (hOX1R; [1]) of 952 nM and an IC50 (human orexin-2 receptor) of 99 nM.
With `Cc1oc(C[C@H]2CCCCN2C(=O)c2ccccc2CC(F)(F)F)nc1C(C)(C)O` [Example 18, (R)-(2-((4-(2-hydroxypropan-2-yl)-5-methyloxazol-2-yl)methyl)piperidin-1-yl)(2-(2,2,2-trifluoroethyl)phenyl)-methanone] the IC50 (hOX1R; [1]) was 1690 nM and the IC50 (human orexin-2 receptor) was 118 nM.
For `COc1ccc(C(=O)N2CCCC[C@@H]2Cc2nc(C(C)(C)O)c(C)o2)c(C2CC2)n1` [Example 19, (R)-(2-cyclopropyl-6-methoxypyridin-3-yl)(2-((4-(2-hydroxypropan-2-yl)-5-methyloxazol-2-yl)methyl)piperidin-1-yl)methanone], the IC50 (hOX1R; [1]) was 2310 nM and the IC50 (human orexin-2 receptor) was 503 nM.
Work on `Cc1oc(C[C@H]2CCCCN2C(=O)c2ccccc2OCC(F)F)nc1C(C)(C)O` [Example 20, (R)-(2-(2,2-difluoroethoxy)phenyl)(2-((4-(2-hydroxypropan-2-yl)-5-methyloxazol-2-yl)methyl)piperidin-1-yl)methanone] yielded an IC50 (hOX1R; [1]) of 690 nM and an IC50 (human orexin-2 receptor) of 112 nM.
In the case of `Cc1oc(C[C@H]2CCCCN2C(=O)c2ncccc2-n2nccn2)nc1C(C)(C)O` [Example 21, (R)-(3-(2H-1,2,3-triazol-2-yl)pyridin-2-yl)(2-((4-(2-hydroxypropan-2-yl)-5-methyloxazol-2-yl)methyl)piperidin-1-yl)methanone], the IC50 (hOX1R; [1]) is reported as 1850 nM and the IC50 (human orexin-2 receptor) is reported as 225 nM.
For `Cc1oc(C[C@H]2CCCCN2C(=O)c2nccnc2-c2ccccn2)nc1C(C)(C)O` [Example 22, (R)-(2-((4-(2-hydroxypropan-2-yl)-5-methyloxazol-2-yl)methyl)piperidin-1-yl)(3-(pyridin-2-yl)pyrazin-2-yl)methanone], the IC50 (hOX1R; [1]) was 2930 nM and the IC50 (human orexin-2 receptor) was 558 nM.
For `Cc1oc(C[C@H]2CCCCN2C(=O)c2nccnc2N2CCCC2)nc1C(C)(C)O` [Example 23, (R)-(2-((4-(2-hydroxypropan-2-yl)-5-methyloxazol-2-yl)methyl)piperidin-1-yl)(3-(pyrrolidin-1-yl)pyrazin-2-yl)methanone], the IC50 (hOX1R; [1]) was > 10000 nM and the IC50 (human orexin-2 receptor) was > 10000 nM.
Work on `Cc1oc(C[C@H]2CCCCN2C(=O)c2ccccc2C2CCC2)nc1C(C)(C)O` [Example 24, (R)-(2-cyclobutylphenyl)(2-((4-(2-hydroxypropan-2-yl)-5-methyloxazol-2-yl)methyl)piperidin-1-yl)methanone] yielded an IC50 (hOX1R; [1]) of 184 nM and an IC50 (human orexin-2 receptor) of 114 nM.
`Cc1oc(C[C@H]2CCCCN2C(=O)c2ncccc2-c2ccccc2)nc1C(C)(C)O` [Example 25, (R)-(2-((4-(2-hydroxypropan-2-yl)-5-methyloxazol-2-yl)methyl)piperidin-1-yl)(3-phenylpyridin-2-yl)methanone] was tested, and the IC50 (hOX1R; [1]) was 240 nM and the IC50 (human orexin-2 receptor) was 127 nM.
With `Cc1oc(C[C@H]2CCCCN2C(=O)c2nccnc2-n2cccn2)nc1C(C)(C)O` [Example 26, (R)-(3-(1H-pyrazol-1-yl)pyrazin-2-yl)(2-((4-(2-hydroxypropan-2-yl)-5-methyloxazol-2-yl)methyl)piperidin-1-yl)methanone] the IC50 (hOX1R; [1]) was 1410 nM and the IC50 (human orexin-2 receptor) was 186 nM.
